Reference: US7034056B2, “Aryl and biaryl compounds having MCH modulatory activity” (Pharmacopeia Drug Discovery, inc., priority 2001, dated 2006)

Target: T1, hMCHR (MCH receptor) (Homo sapiens, UniProt Q99705)
T1 construct: (or internally produced); host or cells: CHO (Chinese hamster ovary) cells, membrane preparation
Experiment: MCH Assay PCOP Protocol ([125I]-MCH SPA binding to hMCHR-CHO membranes)
Conditions: [125I]-MCH 0.5 nM, hMCHR-CHO membranes; read-out: Activity (ranges of Ki values)
Protocol: A reaction mixture of 10 μg hMCHR-CHO overexpressing membranes (from Receptor Biology, Inc., Beltsville, Md., or internally produced) and 100 μg/well WGA-SPA beads (from Amersham Pharmacia Biotech, Inc., Piscataway, N.J.)/100 μl was prepared in MCHR assay buffer (25 mM HEPES, pH 7.4, 10 mM NaCl, 10 mM MgCl2, 5 mM MnCl2, 0.1% BSA). […] The assay plates were shaken for 5 minutes on a plate shaker, then incubated for 2 hours before cpm/well were determined in a Microbeta Trilux counter (from PerkinElmer Wallac, Inc., Gaithersburg, Md.).

T1 sequence (Q99705 whole entry): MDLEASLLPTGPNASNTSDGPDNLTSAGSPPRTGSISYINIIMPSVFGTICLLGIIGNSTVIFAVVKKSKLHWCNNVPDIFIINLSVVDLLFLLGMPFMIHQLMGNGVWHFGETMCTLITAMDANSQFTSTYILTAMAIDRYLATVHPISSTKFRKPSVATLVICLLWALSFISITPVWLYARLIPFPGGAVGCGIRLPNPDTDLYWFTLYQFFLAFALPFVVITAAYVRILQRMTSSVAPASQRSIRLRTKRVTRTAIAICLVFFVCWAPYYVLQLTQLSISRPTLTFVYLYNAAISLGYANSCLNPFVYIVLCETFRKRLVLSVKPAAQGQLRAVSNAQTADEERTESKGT

SMILES | Ki [nM]
CN(C)CCCNCCC(CNC(=O)Nc1cc(Cl)cc(Cl)c1)c1ccc(-c2c(F)cccc2F)cc1 (stereo not drawn) [Example 102] | 501 to 2500
CN(C)CCCNCCC(CNC(=O)Nc1cc(Cl)cc(Cl)c1)c1ccc(Cl)cc1 (stereo not drawn) [Example 112] | 501 to 2500
CC(CCNC1CCCC1)(CNC(=O)Nc1ccc(F)c([N+](=O)[O-])c1)c1ccc(Cl)c(Cl)c1 (stereo not drawn) [Example 113] | 501 to 2500
CC(CCNC1CCCC1)(CNC(=O)Nc1ccc(F)c(F)c1)c1ccc(Cl)c(Cl)c1 (stereo not drawn) [Example 114] | 501 to 2500
CN(C)CCCNCCC(C)(CNC(=O)Nc1ccc(Cl)c([N+](=O)[O-])c1)c1ccc(Cl)c(Cl)c1 (stereo not drawn) [Example 115] | 501 to 2500
CN(C)CCCNCCC(CNC(=O)Nc1cc(Cl)cc(Cl)c1)c1ccc2c(c1)OCO2 (stereo not drawn) [Example 116] | 501 to 2500
CN(C)CCCNCCC(C)(CNC(=O)Nc1ccc(F)c([N+](=O)[O-])c1)c1ccc(Cl)c(Cl)c1 (stereo not drawn) [Example 117] | 501 to 2500
Cc1ccc(C(CCNCCCN(C)C)CNC(=O)Nc2cc(Cl)cc(Cl)c2)cc1C (stereo not drawn) [Example 118] | 501 to 2500
CN(C)CCCNCCC(C)(CNC(=O)Nc1ccc(F)c(F)c1)c1ccc(Cl)c(Cl)c1 (stereo not drawn) [Example 119] | 501 to 2500
CN(C)CCCNCCC(CNC(=O)Nc1ccc(Cl)c([N+](=O)[O-])c1)c1ccc2c(c1)OCO2 (stereo not drawn) [Example 120] | 501 to 2500
O=C(NCC(CCNC1CCCC1)c1ccc2c(c1)OCO2)Nc1ccc(F)c([N+](=O)[O-])c1 (stereo not drawn) [Example 121] | 501 to 2500
Cc1ccc(C(CCNC2CCCC2)CNC(=O)Nc2ccc(Cl)c(Cl)c2)cc1 (stereo not drawn) [Example 127] | 51 to 500
CCOC(=O)N1CCC(NCCC(CNC(=O)Nc2cccc(C(F)(F)F)c2)c2ccc(Cl)cc2)CC1 (stereo not drawn) [Example 128] | 51 to 500
COc1cc(CNCCC(CNC(=O)Nc2cc(Cl)cc(Cl)c2)c2ccc(Cl)c(Cl)c2)cc(OC)c1OC (stereo not drawn) [Example 129] | 51 to 500
O=C(NCC(CCNC1CCCC1)c1ccc(Cl)c(Cl)c1)Nc1cccc(Cl)c1 (stereo not drawn) [Example 130] | 51 to 500
COc1cc(CNCCC(CNC(=O)Nc2ccc(F)c(F)c2)c2ccc(Cl)c(Cl)c2)cc(OC)c1OC (stereo not drawn) [Example 131] | 51 to 500
COc1cc(CNCCC(CNC(=O)Nc2cccc(C(F)(F)F)c2)c2ccc(Cl)c(Cl)c2)cc(OC)c1OC (stereo not drawn) [Example 132] | 51 to 500
O=C(NCC(CCNC1CCCC1)c1ccc(Cl)c(Cl)c1)Nc1cccc(Br)c1 (stereo not drawn) [Example 133] | 51 to 500
O=C(NCC(CCNC1CCCC1)c1ccc(Cl)c(Cl)c1)Nc1ccc(F)c(Cl)c1 (stereo not drawn) [Example 134] | 51 to 500
O=C(NCC(CCNC1CCNC1)c1ccc(Cl)c(Cl)c1)Nc1ccc(Cl)c(Cl)c1 (stereo not drawn) [Example 135] | 51 to 500
O=C(NCC(CCNC1CCCC1)c1ccc(Cl)cc1)Nc1cccc(Br)c1 (stereo not drawn) [Example 136] | 51 to 500
CCOC(=O)N1CCC(NCCC(CNC(=O)Nc2cccc(C(F)(F)F)c2)c2ccc(C)cc2)CC1 (stereo not drawn) [Example 137] | 51 to 500

SMILES | Ki [nM]
O=C(NCC(CCNCCc1ccc(O)cc1)c1ccc(Cl)c(Cl)c1)Nc1ccc(F)c([N+](=O)[O-])c1 (stereo not drawn) [Example 138] | 51 to 500
O=C(NCC(CCNC1CCCC1)c1ccc(Cl)cc1)Nc1cccc(Cl)c1 (stereo not drawn) [Example 139] | 501 to 2500
O=C(NCC(CCNCCc1ccc(O)cc1)c1ccc(Cl)c(Cl)c1)Nc1ccc(F)c(F)c1 (stereo not drawn) [Example 140] | 501 to 2500
O=C(NCC(CCNC1CCCC1)c1ccc(Cl)c(Cl)c1)Nc1ccc(F)c([N+](=O)[O-])c1 (stereo not drawn) [Example 141] | 501 to 2500
Cc1ccc(C(CCNC2CCCC2)CNC(=O)Nc2cccc(Cl)c2)cc1 (stereo not drawn) [Example 142] | 501 to 2500
Cc1ccc(C(CCNC2CCCC2)CNC(=O)Nc2cccc(Br)c2)cc1 (stereo not drawn) [Example 143] | 501 to 2500
O=C(NCC(CCNC1CCCC1)c1ccc(Cl)c(Cl)c1)Nc1ccc(F)c(F)c1 (stereo not drawn) [Example 144] | 501 to 2500
Cc1ccc(C(CCNC2CCNC2)CNC(=O)Nc2ccc(Cl)c(Cl)c2)cc1 (stereo not drawn) [Example 145] | 501 to 2500
CCCOC(=O)N1CCN(CCC(CNC(=O)Nc2cc(C(F)(F)F)cc(C(F)(F)F)c2)c2ccc(Cl)c(Cl)c2)CC1 (stereo not drawn) [Example 146] | 51 to 500
O=C(NCC(CCNC1CCCC1)c1cccc(-c2ccc3c(c2)OCO3)c1)Nc1cc(Cl)cc(Cl)c1 (stereo not drawn) [Example 147] | 51 to 500
O=C(NCC(CCNC1CCCC1)c1cccc(-c2cccc([N+](=O)[O-])c2)c1)Nc1cc(Cl)cc(Cl)c1 (stereo not drawn) [Example 148] | 51 to 500
N#Cc1cccc(-c2cccc(C(CCNC3CCCC3)CNC(=O)Nc3cc(Cl)cc(Cl)c3)c2)c1 (stereo not drawn) [Example 149] | 51 to 500
CN(C)CCCNCCC(CNC(=O)Nc1cc(Cl)cc(Cl)c1)c1cccc(-c2ccc(C(F)(F)F)cc2)c1 (stereo not drawn) [Example 150] | 51 to 500
CN(C)CCCNCCC(CNC(=O)Nc1cc(Cl)cc(Cl)c1)c1cccc(-c2ccc(Cl)cc2)c1 (stereo not drawn) [Example 151] | 51 to 500
O=C(NCC(CCNC1CCCC1)c1cccc(-c2ccc(Cl)cc2)c1)Nc1cc(Cl)cc(Cl)c1 (stereo not drawn) [Example 152] | 51 to 500
COc1cc(-c2cccc(C(CCNC3CCCC3)CNC(=O)Nc3cc(Cl)cc(Cl)c3)c2)cc(OC)c1OC (stereo not drawn) [Example 153] | 51 to 500
COc1ccc(-c2cccc(C(CCNCCCN(C)C)CNC(=O)Nc3cc(Cl)cc(Cl)c3)c2)cc1 (stereo not drawn) [Example 154] | 51 to 500
O=C(NCC(CCNC1CCCC1)c1cccc(-c2ccc(F)cc2)c1)Nc1cc(Cl)cc(Cl)c1 (stereo not drawn) [Example 155] | 51 to 500
O=C(NCC(CCNC1CCCC1)c1cccc(-c2cccc(F)c2)c1)Nc1cc(Cl)cc(Cl)c1 (stereo not drawn) [Example 156] | 51 to 500
O=C(NCC(CCNC1CCCC1)c1cccc(-c2ccc(Cl)c(Cl)c2)c1)Nc1cc(Cl)cc(Cl)c1 (stereo not drawn) [Example 157] | 51 to 500
O=C(NCC(CCNC1CCCC1)c1cccc(-c2cccc(Cl)c2)c1)Nc1cc(Cl)cc(Cl)c1 (stereo not drawn) [Example 158] | 51 to 500
O=C(NCC(CCNC1CCCC1)c1cccc(-c2ccc(F)c(Cl)c2)c1)Nc1cc(Cl)cc(Cl)c1 (stereo not drawn) [Example 159] | 51 to 500

Other lines, results leading:

Ki [nM] | SMILES
0.4 to 50 | CN(C)CCCNCCC(CNC(=O)Nc1cc(Cl)cc(Cl)c1)c1ccc(-c2ccc(F)c(F)c2)cc1 (stereo not drawn) [Example 92]
0.4 to 50 | O=C(NCC(CCNC1CCCC1)c1ccc(-c2ccc[n+]([O-])c2)cc1)Nc1cc(Cl)cc(Cl)c1 (stereo not drawn) [Example 94]
0.4 to 50 | O=C(NCC(CCNC1CCCC1)c1ccc(-c2cc(F)cc(F)c2)cc1)Nc1cc(Cl)cc(Cl)c1 (stereo not drawn) [Example 95]
51 to 500 | Cc1noc(C)c1-c1ccc(C(CCNC2CCCC2)CNC(=O)Nc2cc(Cl)cc(Cl)c2)cc1 (stereo not drawn) [Example 97]
51 to 500 | CN(C)CCCNCCC(CNC(=O)Nc1cc(Cl)cc(Cl)c1)c1ccc(-c2ccc(C#N)cc2)cc1 (stereo not drawn) [Example 98]
51 to 500 | CN(C)CCCNCCC(CNC(=O)Nc1cc(Cl)cc(Cl)c1)c1ccc(-c2cc(F)cc(F)c2)cc1 (stereo not drawn) [Example 99]
51 to 500 | O=C(NCC(CCNC1CCCC1)c1ccc(-c2c(F)cccc2F)cc1)Nc1cc(Cl)cc(Cl)c1 (stereo not drawn) [Example 100]
51 to 500 | CN(C)CCCNCCC(CNC(=O)Nc1cc(Cl)cc(Cl)c1)c1ccc(-c2ccc(OC(F)(F)F)cc2)cc1 (stereo not drawn) [Example 101]
51 to 500 | Cc1ccc(C(CCNC2CCCC2)CNC(=O)Nc2cc(Cl)cc(Cl)c2)cc1C (stereo not drawn) [Example 103]
51 to 500 | O=C(NCC(CCNC1CCCC1)c1ccc2c(c1)OCO2)Nc1ccc(Cl)c([N+](=O)[O-])c1 (stereo not drawn) [Example 104]
51 to 500 | CC(CCNC1CCCC1)(CNC(=O)Nc1ccc(Cl)c([N+](=O)[O-])c1)c1ccc(Cl)c(Cl)c1 (stereo not drawn) [Example 105]
51 to 500 | O=C(NCC(CCNC1CCCC1)c1ccc2c(c1)OCO2)Nc1cc(Cl)cc(Cl)c1 (stereo not drawn) [Example 106]
51 to 500 | CC(CCNC1CCCC1)(CNC(=O)Nc1cc(Cl)cc(Cl)c1)c1ccc(Cl)c(Cl)c1 (stereo not drawn) [Example 107]
51 to 500 | O=C(NCC(CCNC1CCCC1)c1ccc(Cl)cc1)Nc1cc(C(F)(F)F)cc(C(F)(F)F)c1 (stereo not drawn) [Example 108]
51 to 500 | Cc1ccc(C(CCNC2CCCC2)CNC(=O)Nc2cc(C(F)(F)F)cc(C(F)(F)F)c2)cc1C (stereo not drawn) [Example 109]
51 to 500 | O=C(NCC(CCNC1CCCC1)c1cccs1)Nc1ccc(Cl)c([N+](=O)[O-])c1 (stereo not drawn) [Example 110]
51 to 500 | CN(C)CCCNCCC(C)(CNC(=O)Nc1cc(Cl)cc(Cl)c1)c1ccc(Cl)c(Cl)c1 (stereo not drawn) [Example 111]
51 to 500 | CCOC(=O)N1CCC(NCCC(CNC(=O)Nc2cc(Cl)cc(Cl)c2)c2ccc(Cl)cc2)CC1 (stereo not drawn) [Example 122]
51 to 500 | CCOC(=O)N1CCC(NCCC(CNC(=O)Nc2cc(Cl)cc(Cl)c2)c2ccc(C)cc2)CC1 (stereo not drawn) [Example 123]
51 to 500 | O=C(NCC(CCNC1CCCC1)c1ccc(Cl)cc1)Nc1ccc(Cl)c(Cl)c1 (stereo not drawn) [Example 124]
51 to 500 | COc1cc(CNCCC(CNC(=O)Nc2ccc(F)c([N+](=O)[O-])c2)c2ccc(Cl)c(Cl)c2)cc(OC)c1OC (stereo not drawn) [Example 125]
51 to 500 | COc1cc(CNCCC(CNC(=O)Nc2ccc(F)c(Cl)c2)c2ccc(Cl)c(Cl)c2)cc(OC)c1OC (stereo not drawn) [Example 126]
